Experimental findings from PubChem BioAssay AID1996 are described below.

Values after ≈ are worked out from the molar mass of the structure shown.

A word on the solubility (kinetic): it is solubility judged after dilution from a stock solution rather than from solid.

The conditions of this data set: buffer; pH 7.4; 200.0 µM.
In turn, `CCc1nc2ccccc2n1CC1CC1(Cl)Cl` (centres undefined) had a solubility (kinetic) of 34.9 µg/mL (≈ 130 µM).

Regarding `Cc1ccc(S(=O)(=O)c2c(C)cc(C)[nH]c2=O)cc1`, the kinetic solubility is > 41.6 µg/mL.

Turning to `COc1ccc(C(=O)NCCNC(=O)c2ccccn2)cc1`, the kinetic solubility was > 44.9 µg/mL.

Regarding `CSc1nc([O-])cc(=O)n1-c1ccc(F)cc1.[K+]`, the solubility (kinetic) is > 43.6 µg/mL.

For the compound `CCCCCC(=O)NC(=S)Nc1cccc(-c2nc3ncccc3o2)c1`, the solubility (kinetic) was < 0.2 µg/mL.

For the compound `CC(=O)c1cc2c(cc1NC(=O)Cc1ccsc1)OCO2`, the kinetic solubility came to 10.5 µg/mL (≈ 34.6 µM).

As to `N#Cc1ccccc1NC(=O)COc1ccc2c(c1)OCO2`, the solubility (kinetic) stood at 17.1 µg/mL (≈ 57.7 µM).

As for `Cc1ccc2nc(CCc3nc4ccc(C)cc4[nH]3)[nH]c2c1.Cl`, the solubility (kinetic) worked out at 8.9 µg/mL.

In the case of `CCOc1ccccc1NS(=O)(=O)c1ccc2[nH]c(=O)ccc2c1`, the solubility (kinetic) is 48.3 µg/mL (≈ 140 µM).

Consider `Cc1ccccc1NC(=O)CC(=O)Nc1ccccc1C`, for which the kinetic solubility was > 42.4 µg/mL.

In the case of `O=c1cc(C(F)(F)F)nc(SCc2cccnc2)[nH]1`, the kinetic solubility is > 43.1 µg/mL.

`COc1cc(C=O)ccc1OC(=O)c1cccnc1` came in with a kinetic solubility of 33.7 µg/mL (≈ 131 µM).

Turning to `Cc1cccc(C)c1NC(=O)N1CC=CCC1`, the kinetic solubility was > 34.5 µg/mL.

Turning to `CCC(=O)Nc1ccc(NC(=O)c2ccc3ccccc3c2)cc1`, the solubility (kinetic) is < 0.3 µg/mL.

Compound `COCCNC(=O)Cc1c(C)c2c(cc(C)c3c(C(C)(C)C)coc32)oc1=O` showed a kinetic solubility of 3.2 µg/mL (≈ 8.3 µM).

In turn, `CCCc1cnc(N2CCN(C(=O)c3ccc(OC)cc3)CC2)nc1` came in with a solubility (kinetic) of 20.5 µg/mL (≈ 60.2 µM).

With `O=C(CC(c1ccccc1)c1ccccc1)Nc1ccc(C(=O)O)cc1`, the solubility (kinetic) was > 51.8 µg/mL.

For `COc1ccc(S(=O)(=O)N2CCN(C(=O)c3cc4c(s3)CCC4)CC2)cc1`, the kinetic solubility stood at 7.7 µg/mL (≈ 18.9 µM).

`Cc1ccsc1CNC1CCCCC1` returned a kinetic solubility of 24.1 µg/mL (≈ 115 µM).

For `CN(Cc1ccccc1)S(=O)(=O)c1ccc(Cl)c(C(=O)O)c1`, the kinetic solubility is > 51 µg/mL.

For `CC(=O)c1c(C)[nH]c(C(=O)COC(=O)CN2C(=O)C3CCCCC3C2=O)c1C` (centres undefined), the kinetic solubility was > 58.3 µg/mL.

The compound `C=C(C)[C@@H]1CC=C(CN2CCN(Cc3ccccc3)CC2)CC1` returned a solubility (kinetic) of 9.9 µg/mL (≈ 31.9 µM).

In the case of `Cc1cc(C)nc(N2C(=O)CC(Cc3ccc(Cl)cc3)C2=O)n1` (centres undefined), the solubility (kinetic) was > 49.5 µg/mL.

`CCC1(c2ccc(Cl)cc2)NC(=O)N(CC(=O)NC2(C#N)CCCCC2)C1=O` (centres undefined): the kinetic solubility is > 60.4 µg/mL.

As to `O=c1c(Cc2ccc(F)cc2)c(O)ccn1CCCn1ccnc1`, the solubility (kinetic) was > 49.1 µg/mL.

With `CC1(C(=O)O)CCC(C(=O)N2CCCCC2)C1(C)C` (centres undefined), the solubility (kinetic) is > 40.1 µg/mL.

On to `Cc1c(C)n(CCCN(C)C)c2ncnc(Nc3ccccc3)c12`, for which the solubility (kinetic) was > 48.5 µg/mL.

With `CC(C)[C@H](NC(=O)c1ccccc1)C(=O)OCC(=O)Nc1sccc1C(N)=O`, the solubility (kinetic) came to 19 µg/mL (≈ 47.1 µM).

Turning to `Cc1ccc(NC(=O)C2CCCCC2C(=O)O)cc1Cl` (centres undefined), the solubility (kinetic) was > 44.4 µg/mL.

As to `NS(=O)(=O)c1cccc(NC(=O)C2CC(=O)N(Cc3ccco3)C2)c1` (centres undefined), the kinetic solubility was > 54.5 µg/mL.

As to `COc1ccc2[nH]cc(CCN3C(=O)c4ccc(C(=O)O)cc4C3=O)c2c1`, the solubility (kinetic) is > 54.7 µg/mL.

In turn, `O=C(COC(=O)c1ccc[nH]c1=O)NC1CC1` came in with a kinetic solubility of 32.3 µg/mL (≈ 137 µM).

`CCC(=O)N(Cc1cc(=O)[nH]c2ccccc12)c1ccccc1`: the solubility (kinetic) was > 46 µg/mL.

With `CC1(C)Cc2cccc(OCC(=O)NCc3ccccc3)c2O1`, the solubility (kinetic) is > 46.7 µg/mL.

On to `Cc1ccc(C(=O)NCC(=O)NCCCc2ccccc2)cc1`, for which the kinetic solubility was > 46.6 µg/mL.

In the case of `O=C(Cc1ccc(Br)cc1)Nc1nc2ccccc2[nH]1`, the kinetic solubility came out at 2.4 µg/mL (≈ 7.27 µM).

With `Cc1cc(C)nc(NC(=O)c2c(Cl)cccc2Cl)n1`, the solubility (kinetic) is > 44.4 µg/mL.

For `CSc1nc(=S)n(-c2cc(C)ccc2C)c(C)c1C(C)=O`, the kinetic solubility is > 47.8 µg/mL.

Regarding `CCN(CC)C(=O)c1cccc(C)c1`, the kinetic solubility is 19.6 µg/mL (≈ 102 µM).

As for `COCCCNC(=O)CN1C(=O)c2cccc3cccc1c23`, the kinetic solubility is > 44.8 µg/mL.

With `O=C1OC(c2ccccc2)=N/C1=C\C=C\c1ccco1`, the kinetic solubility is 2 µg/mL (≈ 7.54 µM).

`CCN(CC(=O)NCc1ccc(F)cc1)CC(=O)NC1CCCC1`: the kinetic solubility was > 50.3 µg/mL.

Regarding `Cc1ccc(N2C(=O)N(CC(=O)Nc3ccc([N+](=O)[O-])cc3)C(=O)C2C)cc1` (centres undefined), the kinetic solubility turned out to be 6 µg/mL (≈ 15.7 µM).

In the case of `Cc1cccc(CNS(=O)(=O)c2csc(C(N)=O)c2)c1`, the kinetic solubility was > 46.6 µg/mL.

Take `CCO/C=C1/C(=O)N(c2ccccc2OC)C(=O)c2ccccc21`: the solubility (kinetic) was > 48.5 µg/mL.

For the compound `S=c1[nH]ccn1-c1ccccc1Cl`, the kinetic solubility is > 31.6 µg/mL.

With `Cc1cc(Nc2ccc(N(C)C)cc2)n2ncnc2n1`, the kinetic solubility was > 40.2 µg/mL.

Take `O=[N+]([O-])c1cccc(Nc2c([N+](=O)[O-])ccc3nonc23)c1`: the solubility (kinetic) was < 0.1 µg/mL.

`O=C(O)c1cc([N+](=O)[O-])c(NCCC2=CCCCC2)c([N+](=O)[O-])c1`: the solubility (kinetic) was > 50.3 µg/mL.

In turn, `N/C(=N\OC(=O)c1ccc(Cl)c(Cl)c1)c1cccc(CSc2ccccn2)c1` showed a kinetic solubility of 0.9 µg/mL (≈ 2.08 µM).

As to `O=C(COc1ccc(Br)cc1)N1CCc2ccccc21`, the kinetic solubility was < 0.7 µg/mL.

With `Cl.Fc1ccc(OCCCCN2CCOCC2)cc1`, the solubility (kinetic) is > 43.5 µg/mL.

As for `CCc1ccccc1NC(=O)C1CCN(c2cnccn2)CC1`, the solubility (kinetic) was > 46.6 µg/mL.

`CCOC(=O)c1csc(NC(=O)c2cc3ccccc3o2)n1` returned a solubility (kinetic) of 0.8 µg/mL (≈ 2.53 µM).

Compound `CCN(CC)S(=O)(=O)c1cccc(C(=O)NC2=NCCS2)c1` gave a solubility (kinetic) of 34.8 µg/mL (≈ 102 µM).

`COc1cc(CN2CCc3c([nH]c4ccccc34)C2)cc(OC)c1` yielded a solubility (kinetic) of 26 µg/mL (≈ 80.6 µM).

Regarding `C/C(CC1CC(C)(C)OC1=O)=N\NC(N)=S` (centres undefined), the solubility (kinetic) is > 36.5 µg/mL.

In the case of `COc1ccc(NC(=S)N2CCc3ccccc3C2)cc1OC`, the solubility (kinetic) was 1.9 µg/mL (≈ 5.78 µM).

`O=C(CN1C(=O)NC2(CCCC2)C1=O)Nc1ccc(F)c(Cl)c1`: the kinetic solubility is > 51 µg/mL.

Compound `O=C(CNC1CCCCC1)Nc1cccc([N+](=O)[O-])c1` registered a kinetic solubility of 31.4 µg/mL (≈ 113 µM).

On to `O=C(OCCC1Oc2cccnc2NC1=O)c1ccc(Cl)cc1` (centres undefined), for which the kinetic solubility worked out at 4 µg/mL (≈ 12 µM).

With `COc1ccccc1S(=O)(=O)Nc1ccc2nc(C)sc2c1`, the kinetic solubility stood at 10.4 µg/mL (≈ 31.1 µM).

In the case of `CCS(=O)(=O)N1CCC(C(=O)Oc2ccc(Cl)cc2)CC1`, the solubility (kinetic) was determined as 9.9 µg/mL (≈ 29.8 µM).

For the compound `N#CCCN(Cc1ccccc1)S(=O)(=O)c1cccs1`, the solubility (kinetic) is > 46 µg/mL.

For the compound `CC1CCN(C(=S)NC(=O)c2cccc([N+](=O)[O-])c2)CC1`, the kinetic solubility was found to be 34.2 µg/mL (≈ 111 µM).

Consider `CC(=O)Nc1csc2ccccc12`, for which the solubility (kinetic) is > 28.7 µg/mL.

Turning to `N#Cc1cccc(NC(=O)Cc2ccccc2)c1`, the kinetic solubility was > 35.4 µg/mL.

`COc1ccc(N2C(=O)c3ccccc3NC2(C)C)cc1` registered a kinetic solubility of 8.3 µg/mL (≈ 29.4 µM).

In turn, `O=C(Cc1ccccc1)NC1CCSc2ccccc21` (centres undefined) came in with a kinetic solubility of 11.7 µg/mL (≈ 41.3 µM).

For the compound `COc1ccc(NC(=O)COC(=O)CN2C(=O)C3CC=CCC3C2=O)c([N+](=O)[O-])c1` (centres undefined), the solubility (kinetic) is > 62.6 µg/mL.

As for `O=C1c2ccccc2-c2cccc(C(=O)N3CCCCC3)c21`, the kinetic solubility came to 36.7 µg/mL (≈ 126 µM).

In the case of `Cn1c(/C(C#N)=C(\O)c2ccc([N+](=O)[O-])s2)nc2ccccc21`, the solubility (kinetic) was < 0.2 µg/mL.

Consider `CCOC(=O)Nc1ccc(OC)c([N+](=O)[O-])c1`, for which the solubility (kinetic) is > 36 µg/mL.

Turning to `CCOc1ccc(NC(=S)N2CCCCCC2)cc1`, the solubility (kinetic) is > 41.8 µg/mL.

With `CC(=O)NCCc1nc2ccccc2n1CCOc1cccc(C)c1`, the solubility (kinetic) was > 50.6 µg/mL.

For the compound `CCCCn1c(O)c(C(C)=NCCc2c[nH]c3ccccc23)c(=O)[nH]c1=O`, the kinetic solubility amounted to 0.4 µg/mL (≈ 1.09 µM).

With `Cc1ccc(CNCCNCCO)s1.Cl`, the solubility (kinetic) is > 43.1 µg/mL.

`O=C(COC(=O)c1ccc([N+](=O)[O-])cc1)NC1CCCC1` had a kinetic solubility of 21.2 µg/mL (≈ 72.5 µM).

The compound `CCCC(=O)Nc1ccc(C(=O)COC(=O)c2cc(C)oc2C)cc1` gave a solubility (kinetic) of 6.7 µg/mL (≈ 19.5 µM).

On to `COc1cc(CN2CCN(CC3CC3)CC2CCO)cc(OC)c1` (centres undefined), for which the kinetic solubility was 42.6 µg/mL (≈ 127 µM).

The compound `COc1ccc(C(=O)NCCSc2ccccc2C)cc1` came in with a kinetic solubility of 23.7 µg/mL (≈ 78.6 µM).

Compound `O=C(COC(=O)c1cc(=O)[nH]c2ccccc12)c1ccccc1` displayed a kinetic solubility of 8.8 µg/mL (≈ 28.6 µM).

For the compound `COc1ccc(C(=O)c2nc3ccccc3n2C(C)C)cc1`, the kinetic solubility stood at 22.3 µg/mL (≈ 75.8 µM).

In turn, `O=C(Nc1cccc(C(=O)Nc2ccccc2F)c1)c1ccccc1` had a solubility (kinetic) of 1 µg/mL (≈ 2.99 µM).

`O=C(CSc1nc2ccccc2o1)NC1CCCC1`: the solubility (kinetic) was > 41.5 µg/mL.

Compound `S=C1N[C@H]2CCCC[C@@H]2N1` showed a kinetic solubility of 20.8 µg/mL (≈ 133 µM).

For `NC(=O)C1CCN(C(=O)Cc2ccc(-c3ccccc3)cc2)CC1`, the kinetic solubility is > 48.4 µg/mL.

As for `Cc1nc2cc(NC(=O)Nc3cccc(F)c3)ccc2n1C`, the kinetic solubility came out at 3.3 µg/mL (≈ 11.1 µM).

`Cc1ccc2c(c1)c1c3n2CCNC3CCC1.Cl` (centres undefined): the solubility (kinetic) is > 39.4 µg/mL.

On to `CC#CC[N+](C)(C)CCCCCCCCCC.[Br-]`, for which the kinetic solubility is > 47.8 µg/mL.

As for `Cc1ccc(NC(=O)N2CCCCCC2)cc1C`, the solubility (kinetic) was > 37 µg/mL.

`CCC(C)Nc1nc(N)c([N+](=O)[O-])c(NCCO)n1` (centres undefined): the solubility (kinetic) is 39.6 µg/mL (≈ 147 µM).

Regarding `C=CCOc1ccccc1CN1CCCN(C)CC1`, the kinetic solubility was 27.8 µg/mL (≈ 107 µM).

For the compound `O=C(Nc1cccc(Cl)c1)Nc1cccc(C(=O)O)c1`, the kinetic solubility was > 43.6 µg/mL.

In the case of `Cc1nc(Cl)sc1C(=O)Nc1ccc(C(F)(F)F)cc1`, the solubility (kinetic) worked out at 6.6 µg/mL (≈ 20.6 µM).

Regarding `N#Cc1c(SCC(=O)O)nc(N2CCOCC2)c2c1CCCC2`, the kinetic solubility was > 50 µg/mL.

Turning to `Nc1ccc(C(=O)[O-])c(O)c1.O.[Na+]`, the solubility (kinetic) was > 31.7 µg/mL.

Consider `O=C(CSc1ccccc1Cl)N1CCOCC1`, for which the kinetic solubility is > 40.8 µg/mL.

The compound `CC1(C)CC(=O)C(C(O)c2cccc([N+](=O)[O-])c2)C(C)(C)N1` (centres undefined) gave a kinetic solubility of 44.9 µg/mL (≈ 147 µM).

For `O=C(O)CN1CCCCCC1=O`, the solubility (kinetic) was > 25.7 µg/mL.

Regarding `Cc1ccc(F)cc1NC(=O)CSc1ncccn1`, the kinetic solubility was > 41.6 µg/mL.

For `CN(CC(=O)Nc1ccc(F)c(F)c1F)C(=O)C1CCCCC1`, the kinetic solubility was > 49.3 µg/mL.

Turning to `COC(=O)c1sccc1Oc1ccc(Cl)cc1N1C(=O)CCC1=O`, the solubility (kinetic) came out at 48.5 µg/mL (≈ 133 µM).

As for `COc1ccccc1-n1c(-c2ccccc2Cl)nc2ccccc2c1=O`, the kinetic solubility amounted to 36.2 µg/mL (≈ 99.8 µM).
